Converted amounts (≈) assume the structure as drawn.

The source of these data is ChEMBL document CHEMBL5230113, “2-substituted benzothiazoles as antiproliferative agents: Novel insights on structure-activity relationships” (Eur J Med Chem, 2020).

The subject of one experiment is MDA-MB-231. In words: Cytotoxicity against human MDA-MB-231 cells assessed as cell growth inhibition. Format: functional, cell-based.
The next experiment concerns MCF7. In words: Cytotoxicity against human MCF7 cells assessed as inhibition of cell growth. Format: functional, cell-based.
The test system of the next experiment is A549. As to the kind of experiment: Antiproliferative activity against human A549 cells assessed as cell growth inhibition. Format: functional, cell-based.
In another experiment the test system is HeLa. In words: Antiproliferative activity against human HeLa cells assessed as cell growth inhibition. Format: functional, cell-based.
In the next experiment the test system is SK-HEP1. As to the kind of experiment: Cytotoxicity against human SK-HEP1 cells assessed as cell growth inhibition. Format: functional.
The subject of a further experiment is NUGC-3. In words: Cytotoxicity against human NUGC-3 cells assessed as cell growth inhibition. It counts as functional.
Experiment [1] addresses Aryl hydrocarbon receptor (Homo sapiens, UniProt P35869). As to the kind of experiment: Binding affinity to AhR (unknown origin).
The target in experiment [2] is Tyrosine-protein kinase ABL1 (Homo sapiens, UniProt P00519). As to the kind of experiment: Inhibition of wild type Abl (unknown origin).
Sequence of Tyrosine-protein kinase ABL1 (Homo sapiens, UniProt P00519) (P00519 whole entry): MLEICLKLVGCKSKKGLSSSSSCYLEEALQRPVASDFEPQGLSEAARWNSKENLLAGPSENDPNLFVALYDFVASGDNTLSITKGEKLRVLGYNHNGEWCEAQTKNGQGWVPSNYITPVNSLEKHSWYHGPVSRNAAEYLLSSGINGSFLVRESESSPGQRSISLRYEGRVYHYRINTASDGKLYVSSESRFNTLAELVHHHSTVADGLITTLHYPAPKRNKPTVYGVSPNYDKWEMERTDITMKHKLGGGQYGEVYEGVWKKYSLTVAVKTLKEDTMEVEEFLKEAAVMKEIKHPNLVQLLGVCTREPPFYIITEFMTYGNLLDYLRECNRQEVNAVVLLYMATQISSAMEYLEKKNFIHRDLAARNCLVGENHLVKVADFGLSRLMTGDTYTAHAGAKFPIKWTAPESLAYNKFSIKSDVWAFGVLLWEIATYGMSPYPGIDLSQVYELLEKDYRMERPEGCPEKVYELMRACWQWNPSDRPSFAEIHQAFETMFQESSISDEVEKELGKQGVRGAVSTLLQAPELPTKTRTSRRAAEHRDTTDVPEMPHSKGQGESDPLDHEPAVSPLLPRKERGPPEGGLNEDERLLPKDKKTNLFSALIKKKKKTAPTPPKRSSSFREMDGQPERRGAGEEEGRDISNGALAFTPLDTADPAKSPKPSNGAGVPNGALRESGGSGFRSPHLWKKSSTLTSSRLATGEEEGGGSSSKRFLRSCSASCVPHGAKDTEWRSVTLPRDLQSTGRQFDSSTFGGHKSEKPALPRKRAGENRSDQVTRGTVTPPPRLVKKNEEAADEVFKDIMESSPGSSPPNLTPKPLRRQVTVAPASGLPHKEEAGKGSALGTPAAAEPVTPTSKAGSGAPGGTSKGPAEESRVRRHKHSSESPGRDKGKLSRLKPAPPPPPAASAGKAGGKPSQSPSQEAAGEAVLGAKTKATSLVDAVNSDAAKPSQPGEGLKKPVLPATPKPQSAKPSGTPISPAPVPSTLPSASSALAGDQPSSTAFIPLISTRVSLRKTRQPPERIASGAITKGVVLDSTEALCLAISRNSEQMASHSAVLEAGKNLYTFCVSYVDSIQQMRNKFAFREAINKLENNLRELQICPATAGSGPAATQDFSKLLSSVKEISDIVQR
Experiment [3] has as its target Tyrosine-protein kinase ABL1 (Mus musculus, UniProt P00520, T315I). In words: Inhibition of Abl T315I mutant in mouse BaF3 cells. Format: cell-based.
Experiment [4] addresses Tyrosine-protein kinase ABL1 (Mus musculus, UniProt P00520). In words: Inhibition of wild type Abl in mouse BaF3 cells. Format: cell-based.
The next experiment deals with C6. In words: Cytotoxicity against rat C6 cells assessed as inhibition of cell growth. It counts as functional, cell-based.
For a further experiment, the system named is HepG2. In words: Cytotoxicity against human HepG2 cells assessed as inhibition of cell growth. It counts as functional, cell-based.
A further experiment deals with SW-620. In words: Cytotoxicity against human SW620 cells assessed as inhibition of cell growth. It counts as functional, cell-based.
Another experiment concerns PC-3. As to the kind of experiment: Cytotoxicity against human PC-3 cells assessed as inhibition of cell growth. Format: functional, cell-based.
Experiment [5] can be described thus: Cytotoxicity against human SPCA1 cells assessed as inhibition of cell growth. It counts as functional, cell-based.
For a further experiment, the system named is SiHa. As to the kind of experiment: Antiproliferative activity against human SiHa cells assessed as cell growth inhibition. Format: functional, cell-based.
Another experiment deals with HCT-116. In words: Cytotoxicity against human HCT-116 cells assessed as inhibition of cell growth. Format: functional, cell-based.
Experiment [6] can be described thus: Cytotoxicity against human HCC4018 cells assessed as cell growth inhibition. It counts as functional, cell-based.
The target of another experiment is Histone deacetylase 1 (Homo sapiens, UniProt Q13547). As to the kind of experiment: Inhibition of HDAC1 (unknown origin).
Sequence of Histone deacetylase 1 (Q13547 whole entry): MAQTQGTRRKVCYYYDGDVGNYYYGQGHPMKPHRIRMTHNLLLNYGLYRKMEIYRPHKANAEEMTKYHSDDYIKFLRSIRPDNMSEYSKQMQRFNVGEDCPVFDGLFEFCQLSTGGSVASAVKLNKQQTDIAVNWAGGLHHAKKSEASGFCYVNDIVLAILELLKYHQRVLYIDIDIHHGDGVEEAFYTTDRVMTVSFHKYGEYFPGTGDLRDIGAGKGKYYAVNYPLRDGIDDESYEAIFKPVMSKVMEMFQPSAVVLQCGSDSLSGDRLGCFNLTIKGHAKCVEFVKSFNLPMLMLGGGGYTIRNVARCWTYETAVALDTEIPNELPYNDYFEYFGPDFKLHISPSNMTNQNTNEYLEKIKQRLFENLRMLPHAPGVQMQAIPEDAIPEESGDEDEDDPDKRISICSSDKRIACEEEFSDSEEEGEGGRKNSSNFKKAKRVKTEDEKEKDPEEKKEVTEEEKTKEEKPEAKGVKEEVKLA
Another experiment deals with HCC4017. In words: Cytotoxicity against human HCC4017 cells assessed as cell growth inhibition. It counts as functional, cell-based.
In another experiment the test system is SMMC-7721. As to the kind of experiment: Cytotoxicity against human SMMC-7721 cells assessed as cell growth inhibition. It counts as functional, cell-based.
The test system of another experiment is KM12. As to the kind of experiment: Cytotoxicity against human KM12 cells assessed as cell growth inhibition. Format: functional.
The test system of another experiment is K562. In words: Cytotoxicity against human K562 cells. It counts as functional.
A further experiment has as its target Angiopoietin-1 receptor (Homo sapiens, UniProt Q02763). As to the kind of experiment: Inhibition of Tie2 (unknown origin).
A further experiment addresses Tubulin. As to the kind of experiment: Inhibition of tubulin polymerization (unknown origin). It counts as protein-complex assay, Homo sapiens.
For another experiment, the system named is MV4-11. As to the kind of experiment: Antiproliferative activity against human MV4-11 cells assessed as cell growth inhibition. It counts as functional, cell-based.
The test system of the next experiment is DB. In words: Antiproliferative activity against human DB cells assessed as cell growth inhibition. Format: functional, cell-based.
The next experiment deals with Carbonic anhydrase 9 (Homo sapiens, UniProt Q16790). As to the kind of experiment: Inhibition of CA9 (unknown origin).
[7] abbreviates: Homo sapiens, HepG2, read-out: IC50.

Sequence of Tyrosine-protein kinase ABL1 (Mus musculus, UniProt P00520, T315I) (P00520 whole entry T315I): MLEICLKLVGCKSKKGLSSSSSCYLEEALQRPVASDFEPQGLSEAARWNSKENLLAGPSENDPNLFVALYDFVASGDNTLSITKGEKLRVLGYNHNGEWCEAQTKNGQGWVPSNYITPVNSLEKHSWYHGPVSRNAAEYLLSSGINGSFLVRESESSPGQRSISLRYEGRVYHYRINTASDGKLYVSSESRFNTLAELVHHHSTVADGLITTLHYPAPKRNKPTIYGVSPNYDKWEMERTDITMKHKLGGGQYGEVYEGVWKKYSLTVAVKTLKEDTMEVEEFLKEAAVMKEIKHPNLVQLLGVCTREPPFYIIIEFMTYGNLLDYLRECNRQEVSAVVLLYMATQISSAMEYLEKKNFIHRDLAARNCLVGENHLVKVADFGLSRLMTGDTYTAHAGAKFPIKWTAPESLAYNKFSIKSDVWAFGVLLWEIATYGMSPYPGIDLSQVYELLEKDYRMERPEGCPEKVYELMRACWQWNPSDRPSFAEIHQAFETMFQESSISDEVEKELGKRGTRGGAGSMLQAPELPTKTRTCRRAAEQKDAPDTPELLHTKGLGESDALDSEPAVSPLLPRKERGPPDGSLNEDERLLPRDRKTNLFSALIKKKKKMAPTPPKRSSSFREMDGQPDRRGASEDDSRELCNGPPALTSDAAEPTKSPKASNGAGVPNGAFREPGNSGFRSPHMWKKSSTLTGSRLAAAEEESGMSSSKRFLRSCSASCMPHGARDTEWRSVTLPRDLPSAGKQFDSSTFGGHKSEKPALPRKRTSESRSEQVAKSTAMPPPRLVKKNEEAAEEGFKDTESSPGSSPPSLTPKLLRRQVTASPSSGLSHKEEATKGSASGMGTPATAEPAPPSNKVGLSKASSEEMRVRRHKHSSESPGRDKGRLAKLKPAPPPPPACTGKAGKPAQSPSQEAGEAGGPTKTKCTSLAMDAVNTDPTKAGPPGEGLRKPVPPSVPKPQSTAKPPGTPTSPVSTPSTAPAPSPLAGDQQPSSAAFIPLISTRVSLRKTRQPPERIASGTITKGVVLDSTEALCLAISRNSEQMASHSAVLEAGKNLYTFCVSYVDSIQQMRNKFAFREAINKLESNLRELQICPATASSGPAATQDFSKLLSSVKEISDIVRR
Sequence of Tyrosine-protein kinase ABL1 (Mus musculus, UniProt P00520) (P00520 whole entry): as the sequence (P00520 whole entry T315I) above, with I315T counted along it
Sequence of Angiopoietin-1 receptor (Q02763 whole entry): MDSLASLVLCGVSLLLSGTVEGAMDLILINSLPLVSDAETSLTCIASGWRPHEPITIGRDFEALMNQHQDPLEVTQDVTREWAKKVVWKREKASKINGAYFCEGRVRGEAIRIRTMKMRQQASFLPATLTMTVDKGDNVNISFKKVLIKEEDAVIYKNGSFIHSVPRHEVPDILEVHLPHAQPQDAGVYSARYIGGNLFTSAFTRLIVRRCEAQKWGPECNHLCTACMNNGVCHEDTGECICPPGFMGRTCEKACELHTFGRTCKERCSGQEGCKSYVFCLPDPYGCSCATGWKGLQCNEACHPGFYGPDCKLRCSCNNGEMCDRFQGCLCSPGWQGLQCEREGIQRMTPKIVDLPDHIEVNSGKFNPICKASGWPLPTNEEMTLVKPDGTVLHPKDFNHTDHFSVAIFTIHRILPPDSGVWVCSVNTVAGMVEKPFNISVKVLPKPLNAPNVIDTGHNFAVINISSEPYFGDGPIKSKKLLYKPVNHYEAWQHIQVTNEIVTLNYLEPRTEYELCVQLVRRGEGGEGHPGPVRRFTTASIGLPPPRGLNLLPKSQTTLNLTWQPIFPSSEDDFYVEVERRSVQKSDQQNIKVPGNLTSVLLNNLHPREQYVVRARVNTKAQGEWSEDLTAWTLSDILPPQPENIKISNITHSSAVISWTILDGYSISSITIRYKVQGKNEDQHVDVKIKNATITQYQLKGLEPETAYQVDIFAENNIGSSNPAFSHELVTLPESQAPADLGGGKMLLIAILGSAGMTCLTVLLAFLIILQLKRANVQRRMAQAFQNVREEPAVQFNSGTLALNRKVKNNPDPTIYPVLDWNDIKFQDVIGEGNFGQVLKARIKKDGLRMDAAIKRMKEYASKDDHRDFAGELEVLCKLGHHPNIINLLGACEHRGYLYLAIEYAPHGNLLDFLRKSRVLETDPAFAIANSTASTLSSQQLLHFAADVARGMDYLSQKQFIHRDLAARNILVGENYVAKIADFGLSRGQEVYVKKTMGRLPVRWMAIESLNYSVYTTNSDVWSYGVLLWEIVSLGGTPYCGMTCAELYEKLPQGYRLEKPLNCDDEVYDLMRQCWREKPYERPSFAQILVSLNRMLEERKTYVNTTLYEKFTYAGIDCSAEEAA
Sequence of Aryl hydrocarbon receptor (P35869 whole entry): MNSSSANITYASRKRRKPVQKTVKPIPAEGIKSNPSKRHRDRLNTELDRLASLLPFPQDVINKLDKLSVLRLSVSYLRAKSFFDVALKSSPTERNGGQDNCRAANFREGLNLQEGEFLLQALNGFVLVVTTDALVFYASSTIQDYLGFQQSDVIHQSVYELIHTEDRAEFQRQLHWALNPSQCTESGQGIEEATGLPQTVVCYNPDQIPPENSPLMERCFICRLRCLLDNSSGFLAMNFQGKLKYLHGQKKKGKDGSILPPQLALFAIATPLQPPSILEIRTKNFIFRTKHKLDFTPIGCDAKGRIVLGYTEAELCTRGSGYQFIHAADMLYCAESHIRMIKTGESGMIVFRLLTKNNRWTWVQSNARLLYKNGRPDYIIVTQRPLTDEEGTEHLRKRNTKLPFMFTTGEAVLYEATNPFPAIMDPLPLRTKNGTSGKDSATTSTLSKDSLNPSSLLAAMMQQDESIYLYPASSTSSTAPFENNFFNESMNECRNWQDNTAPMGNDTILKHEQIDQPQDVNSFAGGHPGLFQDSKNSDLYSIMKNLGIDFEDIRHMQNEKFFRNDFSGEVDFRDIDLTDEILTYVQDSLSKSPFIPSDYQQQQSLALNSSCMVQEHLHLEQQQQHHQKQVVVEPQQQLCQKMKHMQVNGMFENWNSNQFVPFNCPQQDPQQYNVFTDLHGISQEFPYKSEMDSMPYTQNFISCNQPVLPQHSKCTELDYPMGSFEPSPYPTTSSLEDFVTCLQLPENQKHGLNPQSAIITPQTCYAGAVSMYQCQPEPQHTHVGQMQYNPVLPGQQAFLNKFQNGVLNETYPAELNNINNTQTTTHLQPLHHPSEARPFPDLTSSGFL

By IC50 is commonly meant the concentration at which inhibition is half-maximal. For `CN1CCN(CC(=O)Nc2ccc(-c3nc4ccccc4s3)cc2)CC1`, the IC50 turned out to be 8 nM in the experiment with MDA-MB-231 and 10 nM in the experiment on MCF7.
Broadly, the GI50 is the concentration giving 50% growth inhibition. As for `Clc1cccc(-n2cc(CNc3ccc(-c4nc5ccccc5s4)cc3)nn2)c1`, the GI50 with A549, in the experiment with HeLa and in the experiment with MDA-MB-231 was 200 nM in each case.
`COc1cccc2sc(NC(=O)c3ccc(C)cc3)nc12`: the GI50 in the experiment on SK-HEP1, with MDA-MB-231 and with NUGC-3 was 860 nM in each case.
For `COc1ccc(-c2nc3cc(F)ccc3s2)cc1OC`, in [1], the IC50 came out at 25 nM.
In the case of `CCNC(=O)Nc1nc2ccc(-c3ccccc3OC)cc2s1`, the IC50 in experiment [2] is 0.06 nM; in experiment [3], 2140 nM; in experiment [4] it was 3570 nM.
For the molecule `Cc1cc(C)c2sc(NC(=O)c3ccc(C(F)(F)F)cc3)nc2c1`, the GI50 in the experiment with SK-HEP1, with MDA-MB-231 and in the experiment with NUGC-3 was 290 nM throughout.
Turning to `Cc1ccc(Nn2c(SCC(=O)Nc3nc4ccc(F)cc4s3)nc(C)c2C)cc1`, the IC50 in the experiment with C6 stood at 16.3 µg/mL (≈ 37 µM); in the experiment on HepG2 (hepg2), 31.7 µg/mL.
As to `O=C(CSc1nc2ccc(NC(=O)CCl)cc2s1)NCc1ccccc1`, the IC50 with SW-620 was 5120 nM; in the experiment on HeLa, 5130 nM; with PC-3, 6580 nM; in experiment [5], 3890 nM.
As to `COc1ccc(Cl)cc1C(=O)Nc1ccc(-c2nc3ccccc3s2)cc1`, the IC50 with SiHa stood at 6130 nM.
Regarding `Nc1ccc2sc(NC(=O)c3sc4ccccc4c3Cl)nc2c1`, the IC50 in the experiment with HCT-116 was 4000 nM; in the experiment on MCF7 it was 40 nM.
In the case of `O=C(NO)c1ccc(S(=O)(=O)N2CCN(c3nc4ccccc4s3)CC2)cc1`, the IC50 turned out to be 4000 nM in experiment [6], 4800 nM on Histone deacetylase 1 and 1630 nM in the experiment on HCC4017.
For `N=C(N)N/N=C/c1cn(-c2nc3ccc(Oc4ccc(F)cc4)cc3s2)nc1-c1ccccc1`, the IC50 with SMMC-7721 was found to be 2310 nM; with MDA-MB-231, 2410 nM; with MCF7, 2230 nM; in the experiment with HepG2 (setting [7]) it was 3750 nM.
With `CCN1CCN(Cc2ccc(NC(=O)Nc3nc4ccc(Oc5ccnc(C(=O)NC)c5)cc4s3)cc2C(F)(F)F)CC1`, the GI50 worked out at 19 nM with KM12 and 51.4 nM with K562. Also, the IC50 at Angiopoietin-1 receptor was found to be 0.82 nM.
Take `O=C(CN1CCOCC1)Nc1ccc(-c2nc3ccccc3s2)cc1`: the IC50 is 8 nM in the experiment with MDA-MB-231 and 10 nM in the experiment with MCF7.
The like results for `O=C(CN1CCCCC1)Nc1ccc(-c2nc3ccccc3s2)cc1` were, in that order, 8 nM and 10 nM.
On to `COc1ccc(CN(C(=O)CSc2nc3ccccc3s2)c2cc(OC)c(OC)c(OC)c2)cc1O`, for which half-maximal inhibition against Tubulin (IC50) required 1900 nM.
As to `COc1ccccc1-c1ccc2nc(NC(=O)NCCN3CCN(C)CC3)sc2c1`, the IC50 in [3] is 78 nM; in [4] it was 46 nM.
Regarding `O=C(Nc1cccc(-c2nc3ccccc3s2)c1)c1cccnc1`, the IC50 in the experiment on A549 is 5420 nM; in the experiment with MV4-11, 7510 nM; in the experiment with HeLa, 15000 nM; in the experiment on DB, 15000 nM; with MCF7, 15000 nM; with HepG2 (setting [7]), 15000 nM.
Consider `Cc1nc(SCC(=O)Nc2nc3ccc(F)cc3s2)n(Nc2ccc([N+](=O)[O-])cc2)c1C`, for which, in the experiment on HepG2 (hepg2), the IC50 is over 500 µg/mL.
For the molecule `CCCC(Sc1nc2cc(Cl)ccc2s1)C(=O)NS(=O)(=O)c1ccc(OC)cc1` (stereo not drawn), at Carbonic anhydrase 9, the IC50 worked out at 490 nM.
Turning to `Cc1ccc(Nn2c(SCC(=O)Nc3nc4ccc(Cl)cc4s3)nc(C)c2C)cc1`, the IC50 in the experiment with HepG2 (hepg2) worked out at 29.3 µg/mL.
`Cc1cc(C)c2sc(NC(=O)c3ccc([N+](=O)[O-])cc3)nc2c1`: the GI50 in the experiment with SK-HEP1, with MDA-MB-231 and in the experiment on NUGC-3 was 290 nM throughout.
